For 16 molecules, DC50 and IC50 results are on record in patent US20260028354A1, “TETRAHYDRONAPHTHALENE DERIVATIVES AS ESTROGEN RECEPTOR DEGRADERS” (REGENT OF THE UNIVERSITY OF MICHIGAN, priority 2022, published 2026).

Where two headings read alike, the source gives them in different places. A value given as a limit tells only on which side of the number the result lay.

What is called IC50 is the concentration that inhibits the measured activity by half.

In one assay the target is ER (Homo sapiens (Human), UniProt P03372). In words: In-cell western blot analysis of ER for "B" compounds. Format: cell-based. Particulars: 16 hours, read-out: ICW DC50. The method, boiled down:
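ER levels given as a percentage of untreated/DMSO-treated wells (100%). Detection used primary antibodies for 2 h at room temperature followed by 680 and 800 nm fluorescent secondaries at 1:1000 for 1 h, read by LI-COR imaging.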

Assay [1] is described as follows: Cell growth assay (WST-8) for "B" compounds. Format: cell-based. The conditions noted are these: T47D, read-out: Cell growth Inhibition in T47D cell line IC50. In a few lines: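 Four-day compound exposure of cells plated at 1500/well the day before. Read-out is WST-8 (10%, 2.5 h, 37 °C) absorbance at 450 nm, normalized to vehicle control over three independent repeats.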
(In general: Tetrazolium dyes change colour on reduction, which living cells bring about.)

Chain of ER (P03372 whole entry): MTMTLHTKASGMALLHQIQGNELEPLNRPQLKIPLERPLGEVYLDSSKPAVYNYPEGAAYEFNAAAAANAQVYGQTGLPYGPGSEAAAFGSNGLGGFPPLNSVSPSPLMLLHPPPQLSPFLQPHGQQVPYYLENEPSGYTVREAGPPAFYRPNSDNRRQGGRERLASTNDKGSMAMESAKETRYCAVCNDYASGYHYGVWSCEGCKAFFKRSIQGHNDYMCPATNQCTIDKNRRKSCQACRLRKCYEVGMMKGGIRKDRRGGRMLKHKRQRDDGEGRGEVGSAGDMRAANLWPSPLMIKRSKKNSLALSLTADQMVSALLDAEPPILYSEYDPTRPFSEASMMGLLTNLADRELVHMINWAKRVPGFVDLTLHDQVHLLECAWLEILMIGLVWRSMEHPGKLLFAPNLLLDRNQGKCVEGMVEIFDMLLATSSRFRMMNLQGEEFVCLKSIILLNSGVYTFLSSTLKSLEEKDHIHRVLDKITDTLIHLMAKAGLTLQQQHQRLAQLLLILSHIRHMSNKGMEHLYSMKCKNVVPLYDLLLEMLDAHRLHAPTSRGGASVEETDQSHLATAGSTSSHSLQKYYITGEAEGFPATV

As for `O=C1CCC(N2Cc3cc4c(cc3C2=O)OC[C@@H]2CN(C3CN(CC5CCN(c6ccc([C@@H]7c8ccc(O)cc8CC[C@@H]7c7ccccc7)cc6)CC5)C3)CCN42)C(=O)N1` (stereo partly drawn) [Compound B164, 3-((S)-3-(1-((1-(4-((1R,2S)-6-hydroxy-2-phenyl-1,2,3,4-tetrahydronaphthalen-1-yl)phenyl)piperidin-4-yl)methyl)azetidin-3-yl)-8-oxo-1,2,3,4,4a,5,8,10-octahydro-9H-pyrazino[1′,2′:4,5][1,4]oxazino[2,3-f]isoindol-9-yl)piperidine-2,6-dione], at ER, the DC50 is less than 10 nM. Also, in assay [1] (T47D cell line), the IC50 was 1 to 10 nM.

In the case of `O=C1CC[C@H](N2Cc3c(ccc4c3OCC43CCN(CC4COC5(CCN(c6ccc([C@@H]7c8ccc(O)cc8CC[C@@H]7c7ccccc7)cc6)CC5)OC4)CC3)C2=O)C(=O)N1` [Compound B337, (S)-3-(1′-((9-(4-((1R,2S)-6-hydroxy-2-phenyl-1,2,3,4-tetrahydronaphthalen-1-yl)phenyl)-1,5-dioxa-9-azaspiro[5.5]undecan-3-yl)methyl)-6-oxo-6,8-dihydro-2H,7H-spiro[furo[2,3-e]isoindole-3,4′-piperidin]-7-yl)piperidine-2,6-dione], the DC50 on ER was less than 10 nM. In addition, in assay [1], the IC50 was less than 1 nM.

With `O=C1CC[C@H](NC(=O)c2ccc(N3CCN(CC4CCN(c5ccc([C@@H]6c7ccc(O)cc7CC[C@@H]6c6ccccc6)cc5)CC4)CC3)cc2)C(=O)N1` [Compound B315, N-((S)-2,6-dioxopiperidin-3-yl)-4-(4-((1-(4-((1R,2S)-6-hydroxy-2-phenyl-1,2,3,4-tetrahydronaphthalen-1-yl)phenyl)piperidin-4-yl)methyl)piperazin-1-yl)benzamide], on ER, the DC50 was greater than 100 nM. For the same molecule, the IC50 in assay [1] (T47D cell line) lay in the range of 1 to 10 nM.

Turning to `O=C1CCC(N2Cc3c(ccc4c3OC[C@@H]3CN(C(=O)CN5CC(Oc6ccc([C@@H]7c8ccc(O)cc8CC[C@@H]7c7ccccc7)cc6)C5)CCN43)C2=O)C(=O)N1` (stereo partly drawn) [Compound B248, 3-((S)-7-(2-(3-(4-((1R,2S)-6-hydroxy-2-phenyl-1,2,3,4-tetrahydronaphthalen-1-yl)phenoxy)azetidin-1-yl)acetyl)-1-oxo-1,3,5,5a,6,7,8,9-octahydro-2H-pyrazino[1′,2′:4,5][1,4]oxazino[2,3-e]isoindol-2-yl)piperidine-2,6-dione], the DC50 at ER is 10 to 100 nM. Also, the IC50 in assay [1] (T47D cell line) was less than 1 nM.

With `O=C1CCC(N2Cc3cc4c(cc3C2=O)OC[C@@H]2CN(CC3CCC5(CCN(c6ccc([C@@H]7c8ccc(O)cc8CC[C@@H]7c7ccccc7)cc6)CC5)O3)CCN42)C(=O)N1` (stereo partly drawn) [Compound B177, 3-((4aS)-3-((8-(4-((1R,2S)-6-hydroxy-2-phenyl-1,2,3,4-tetrahydronaphthalen-1-yl)phenyl)-1-oxa-8-azaspiro[4.5]decan-2-yl)methyl)-8-oxo-1,2,3,4,4a,5,8,10-octahydro-9H-pyrazino[1′,2′: 4,5][1,4]oxazino[2,3-f]isoindol-9-yl)piperidine-2,6-dione], on ER, the DC50 was greater than 100 nM. Further, in assay [1] (T47D cell line), the IC50 fell in the range of 1 to 10 nM.

For `O=C1CCC(N2Cc3cc4c(cc3C2=O)OC[C@@H]2CN(CC(=O)N3CC(Nc5ccc([C@@H]6c7ccc(O)cc7CC[C@@H]6c6ccccc6)cc5)C3)CCN42)C(=O)N1` (stereo partly drawn) [Compound B207, 3-((S)-3-(2-(3-((4-((1R,2S)-6-hydroxy-2-phenyl-1,2,3,4-tetrahydronaphthalen-1-yl)phenyl)amino)azetidin-1-yl)-2-oxoethyl)-8-oxo-1,2,3,4,4a,5,8,10-octahydro-9H-pyrazino[1′,2′:4,5][1,4]oxazino[2,3-f]isoindol-9-yl)piperidine-2,6-dione], at ER, the DC50 is less than 10 nM. The IC50 in assay [1] (T47D cell line) was less than 1 nM.

In the case of `O=C1CCC(N2Cc3c(ccc4c3OC[C@H]3CN(CC(=O)N5CC(Nc6ccc([C@@H]7c8ccc(O)cc8CC[C@@H]7c7ccccc7)cc6)C5)CCN43)C2=O)C(=O)N1` (stereo partly drawn) [Compound B220, 3-((R)-7-(2-(3-((4-((1R,2S)-6-hydroxy-2-phenyl-1,2,3,4-tetrahydronaphthalen-1-yl)phenyl)amino)azetidin-1-yl)-2-oxoethyl)-1-oxo-1,3,5,5a,6,7,8,9-octahydro-2H-pyrazino[1′,2′:4,5][1,4]oxazino[2,3-e]isoindol-2-yl)piperidine-2,6-dione], the DC50 at ER is greater than 100 nM. The IC50 in assay [1] (T47D cell line) was less than 1 nM.

Turning to `O=C1CC[C@H](NC(=O)c2ccc3c(n2)OC[C@H]2CN(CC4CCN(c5ccc([C@@H]6c7ccc(O)cc7CC[C@@H]6c6ccccc6)cc5)CC4)CCN32)C(=O)N1` [Compound B224, (R)-N-((S)-2,6-dioxopiperidin-3-yl)-3-((1-(4-((1R,2S)-6-hydroxy-2-phenyl-1,2,3,4-tetrahydronaphthalen-1-yl)phenyl)piperidin-4-yl)methyl)-1,2,3,4,4a,5-hexahydropyrazino[1,2-d]pyrido[2,3-b][1,4]oxazine-8-carboxamide], the DC50 at ER is greater than 100 nM. The IC50 in assay [1] (T47D cell line) lay in the range of 1 to 10 nM.

Regarding `O=C1CCC(N2C(=O)c3cc4c(cc3C2=O)CN(CC(=O)N2CCOC3(CCN(c5ccc([C@@H]6c7ccc(O)cc7CC[C@@H]6c6ccccc6)cc5)CC3)C2)C4)C(=O)N1` (stereo partly drawn) [Compound B325, 2-(2,6-dioxopiperidin-3-yl)-6-(2-(9-(4-((1R,2S)-6-hydroxy-2-phenyl-1,2,3,4-tetrahydronaphthalen-1-yl)phenyl)-1-oxa-4,9-diazaspiro[5.5]undecan-4-yl)-2-oxoethyl)-6,7-dihydropyrrolo[3,4-f]isoindole-1,3(2H,5H)-dione], on ER, the DC50 was 10 to 100 nM. Further, the IC50 in assay [1] (T47D cell line) fell in the range of 1 to 10 nM.

Turning to `O=C1CCC(N2Cc3cc4c(cc3C2=O)OC[C@@H]2CN(C(=O)CN3CCC5(C3)CN(c3ccc([C@@H]6c7ccc(O)cc7CC[C@@H]6c6ccccc6)cc3)C5)CCN42)C(=O)N1` (stereo partly drawn) [Compound B154, 3-((S)-3-(2-(2-(4-((1R,2S)-6-hydroxy-2-phenyl-1,2,3,4-tetrahydronaphthalen-1-yl)phenyl)-2,6-diazaspiro[3.4]octan-6-yl)acetyl)-8-oxo-1,2,3,4,4a,5,8,10-octahydro-9H-pyrazino[1′,2′:4,5][1,4]oxazino[2,3-f]isoindol-9-yl)piperidine-2,6-dione], the DC50 at ER was less than 10 nM. Moreover, the IC50 in assay [1] (T47D cell line) was less than 1 nM.

On to `O=C1CC[C@H](NC(=O)c2ccc(N3CCN(CC4CCN(c5ccc([C@@H]6c7ccc(O)cc7CC[C@@H]6c6ccccc6)cc5)CC4)CC3)cc2F)C(=O)N1` [Compound B317, N-((S)-2,6-dioxopiperidin-3-yl)-2-fluoro-4-(4-((1-(4-((1R,2S)-6-hydroxy-2-phenyl-1,2,3,4-tetrahydronaphthalen-1-yl)phenyl)piperidin-4-yl)methyl)piperazin-1-yl)benzamide], for which the DC50 on ER was greater than 100 nM. The IC50 in assay [1] (T47D cell line) lay within 1 to 10 nM.

`O=C1CCC(N2Cc3cc4c(cc3C2=O)OC[C@@H]2CN(C(=O)CN3CC5(CCN(c6ccc([C@@H]7c8ccc(O)cc8CC[C@@H]7c7ccccc7)cc6)CC5)C3)CCN42)C(=O)N1` (stereo partly drawn) [Compound B142, 3-((S)-3-(2-(7-(4-((1R,2S)-6-hydroxy-2-phenyl-1,2,3,4-tetrahydronaphthalen-1-yl)phenyl)-2,7-diazaspiro[3.5]nonan-2-yl)acetyl)-8-oxo-1,2,3,4,4a,5,8,10-octahydro-9H-pyrazino[1′,2′: 4,5][1,4]oxazino[2,3-f]isoindol-9-yl)piperidine-2,6-dione]: the DC50 at ER is less than 10 nM. Besides, the IC50 in assay [1] (T47D cell line) was less than 1 nM.

For the molecule `O=C1CCC(N2Cc3c(ccc4c3OCC43CCN(CC4CCN(c5ccc([C@@H]6c7ccc(O)cc7CC[C@@H]6c6ccccc6)cc5)CC4)CC3)C2=O)C(=O)N1` (stereo partly drawn) [Compound B258, 3-(1′-((1-(4-((1R,2S)-6-hydroxy-2-phenyl-1,2,3,4-tetrahydronaphthalen-1-yl)phenyl)piperidin-4-yl)methyl)-6-oxo-6,8-dihydro-2H,7H-spiro[furo[2,3-e]isoindole-3,4′-piperidin]-7-yl)piperidine-2,6-dione], at ER, the DC50 was 10 to 100 nM. Further, the IC50 in assay [1] was less than 1 nM.

As to `O=C1CC[C@H](N2Cc3cc4c(cc3C2=O)OC[C@@H]2CN(C[C@H]3COC5(CCN(c6ccc([C@@H]7c8ccc(O)cc8CC[C@@H]7c7ccccc7)cc6)CC5)C3)CCN42)C(=O)N1` [Compound B398, (S)-3-((S)-3-(((S)-8-(4-((1R,2S)-6-hydroxy-2-phenyl-1,2,3,4-tetrahydronaphthalen-1-yl)phenyl)-1-oxa-8-azaspiro[4.5]decan-3-yl)methyl)-8-oxo-1,2,3,4,4a,5,8,10-octahydro-9H-pyrazino[1′,2′:4,5][1,4]oxazino[2,3-f]isoindol-9-yl)piperidine-2,6-dione], the DC50 at ER was less than 10 nM. Besides, the IC50 in assay [1] (T47D cell line) was less than 1 nM.

For `O=C1CCC(Nc2ccc(C3CCN(CC4COC5(CN(c6ccc([C@@H]7c8ccc(O)cc8CC[C@@H]7c7ccccc7)cc6)C5)OC4)CC3)cc2)C(=O)N1` (stereo partly drawn) [Compound B339, 3-((4-(1-((2-(4-((1R,2S)-6-hydroxy-2-phenyl-1,2,3,4-tetrahydronaphthalen-1-yl)phenyl)-5,9-dioxa-2-azaspiro[3.5]nonan-7-yl)methyl)piperidin-4-yl)phenyl)amino)piperidine-2,6-dione], on ER, the DC50 is greater than 100 nM. In addition, the IC50 in assay [1] (T47D cell line) was in the range of 1 to 10 nM.

As to `O=C1CCC(N2Cc3c(ccc4c3OCC43CCN(CC4CC5(CCN(c6ccc([C@@H]7c8ccc(O)cc8CC[C@@H]7c7ccccc7)cc6)CC5)C4)CC3)C2=O)C(=O)N1` (stereo partly drawn) [Compound B313, 3-(1′-((7-(4-((1R,2S)-6-hydroxy-2-phenyl-1,2,3,4-tetrahydronaphthalen-1-yl)phenyl)-7-azaspiro[3.5]nonan-2-yl)methyl)-6-oxo-6,8-dihydro-2H,7H-spiro[furo[2,3-e]isoindole-3,4′-piperidin]-7-yl)piperidine-2,6-dione], the DC50 at ER lay in the range of 10 to 100 nM. For the same molecule, the IC50 in assay [1] is less than 1 nM.
